Key:
Assay in all cases: number of L4/adult animals relative to DMSO control (development) (fraction of control); higher = more growth (less toxic); extreme values may be limits of the assay
Conditions in all cases: concentration unit: uM
CB1072 unc-29(e1072) = test system: CB1072 unc-29(e1072)
Method: (§1)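 About 20 L1 larvae of wild-type or anthelmintic-resistant C. elegans strains were grown in 96-well plates with HB101 E. coli and a compound dilution series (0.6% DMSO). The number of L4/adult animals was counted after 72 h (day 7 for the slow-growing PR1152) and normalised to DMSO wells. Values are the mean of 3 biological replicates, each done in technical triplicate.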

CB3474 ben-1(e1880) = test system: CB3474 ben-1(e1880)
Method: as §1

CF1038 daf-16(mu86) = test system: CF1038 daf-16(mu86)
Method: as §1

[1] = test system: DA1316 avr-14;avr-15;glc-1
Method: as §1

N2 = test system: N2
Method: as §1

NM1968 slo-1(js379) = test system: NM1968 slo-1(js379)
Method: as §1

PR1152 cha-1(p1152) = test system: PR1152 cha-1(p1152)
Method: as §1

RB2119 acr-23(ok2804) = test system: RB2119 acr-23(ok2804)
Method: as §1

RP2674 mev-1(tr393) = test system: RP2674 mev-1(tr393)
Method: as §1

VC731 unc-63(ok1075) = test system: VC731 unc-63(ok1075)
Method: as §1

O=C(NCCc1ncc(C(F)(F)F)cc1Cl)c1ccccc1C(F)(F)F [fluopyram]
number of L4/adult animals
Conditions | CB1072 unc-29(e1072) | CB3474 ben-1(e1880) | CF1038 daf-16(mu86) | N2 | NM1968 slo-1(js379) | PR1152 cha-1(p1152) | RB2119 acr-23(ok2804) | RP2674 mev-1(tr393) | VC731 unc-63(ok1075) | [1]
concentration: 0.09375 | 0.915 | 1.01 | 1.02 | 1.06 | 0.984 | 0.97 | 1.01 | 1.1 | 0.961 | 0.958
concentration: 0.1875 | 0.705 | 0.812 | 0.957 | 0.953 | 0.617 | 0.284 | 0.981 | 1.14 | 0.651 | 0.854
concentration: 0.375 | 0.689 | 0.674 | 0.451 | 0.712 | 0.0215 | 0 | 0.372 | 1.01 | 0.305 | 0.176
concentration: 0.75 | 0 | 0 | 0 | 0 | 0 | 0 | 0 | 0.999 | 0 | 0
concentration: 1.5 | 0 | 0 | 0 | 0 | 0 | 0 | 0 | 1.06 | 0 | 0
concentration: 3 | 0 | 0 | 0 | 0 | 0 | 0 | 0 | 1.03 | 0 | 0
concentration: 6 | 0 | 0 | 0 | 0 | 0 | 0 | 0 | 0.91 | 0 | 0

c1ccc([C@H]2CN3CCSC3=N2)cc1 [levamisole]
number of L4/adult animals
Conditions | CB1072 unc-29(e1072) | CB3474 ben-1(e1880) | CF1038 daf-16(mu86) | N2 | NM1968 slo-1(js379) | PR1152 cha-1(p1152) | RB2119 acr-23(ok2804) | RP2674 mev-1(tr393) | VC731 unc-63(ok1075) | [1]
concentration: 9.375 | 1.09 | 0.906 | 0.606 | 0.964 | 0.888 | 0.329 | 0.95 | 0.783 | 1 | 0.774
concentration: 18.75 | 1.07 | 0.964 | 0.91 | 0.973 | 0.984 | 0.207 | 0.812 | 0.942 | 1.03 | 1.01
concentration: 37.5 | 1.1 | 1.06 | 1.01 | 1.05 | 0.95 | 0.0255 | 0.632 | 1.04 | 0.996 | 0.984
concentration: 75 | 1.01 | 0.914 | 0.827 | 1.08 | 0.856 | 0.00498 | 0.47 | 0.914 | 1.09 | 0.871
concentration: 150 | 1.08 | 0.627 | 0.678 | 0.535 | 0.595 | 0 | 0.13 | 0.352 | 1.07 | 0.487
concentration: 300 | 0.988 | 0.403 | 0.335 | 0.218 | 0.0768 | 0 | 0.0225 | 0.0923 | 1.02 | 0.106
concentration: 600 | 1.04 | 0.0551 | 0.0591 | 0.0242 | 0 | 0 | 0 | 0.029 | 1.04 | 0.00556

— the supplement of paper PMC9402605
